Measurements from PMC7714403 (JCI Insight, 2020).
Values joined by “and” are separate entries in the source; they are usually repeats but may differ in a detail not shown here. Identical values can stand only once.

Tests used:
[1] = target: T1, TLK1 (Homo sapiens, UniProt Q9UKI8); test: KiNativ, OCI cells live cell; assay type: cell-based; details: 2 h
T1 sequence (Q9UKI8 1-766): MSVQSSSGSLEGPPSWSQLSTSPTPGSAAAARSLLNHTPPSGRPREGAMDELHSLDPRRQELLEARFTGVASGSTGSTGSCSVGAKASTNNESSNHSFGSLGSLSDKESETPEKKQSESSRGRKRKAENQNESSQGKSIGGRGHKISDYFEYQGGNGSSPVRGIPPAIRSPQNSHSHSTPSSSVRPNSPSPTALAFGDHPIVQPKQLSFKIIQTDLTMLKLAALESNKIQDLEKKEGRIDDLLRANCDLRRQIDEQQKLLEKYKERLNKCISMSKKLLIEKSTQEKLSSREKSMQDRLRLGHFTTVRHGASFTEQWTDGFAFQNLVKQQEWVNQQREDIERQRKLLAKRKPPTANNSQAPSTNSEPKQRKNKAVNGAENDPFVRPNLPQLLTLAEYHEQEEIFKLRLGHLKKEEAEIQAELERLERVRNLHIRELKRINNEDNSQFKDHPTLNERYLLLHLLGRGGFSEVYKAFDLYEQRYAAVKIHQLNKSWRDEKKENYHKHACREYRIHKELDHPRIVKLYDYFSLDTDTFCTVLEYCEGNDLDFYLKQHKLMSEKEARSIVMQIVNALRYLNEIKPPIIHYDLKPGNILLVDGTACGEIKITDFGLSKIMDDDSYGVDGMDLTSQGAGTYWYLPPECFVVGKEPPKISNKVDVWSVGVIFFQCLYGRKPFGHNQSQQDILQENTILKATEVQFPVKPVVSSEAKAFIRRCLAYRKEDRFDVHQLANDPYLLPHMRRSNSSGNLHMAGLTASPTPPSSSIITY

[2] = target: MAP3K5 (Homo sapiens, UniProt Q99683); test: KiNativ, OCI cells live cell; assay type: cell-based; details: 2 h, labeling site Lys2, peptide […]
[3] = target: T2, AURKA (Homo sapiens, UniProt O14965); test: KdELECT binding assay
T2 construct: purchased Eurofins DiscoverX

[4] = target: DLK (Homo sapiens, UniProt Q12852); test: KiNativ, OCI cells live cell; assay type: cell-based; details: labeling site Lys2, peptide DLKSPNMLITYDDVVK
DLK, sequence (Q12852 whole entry): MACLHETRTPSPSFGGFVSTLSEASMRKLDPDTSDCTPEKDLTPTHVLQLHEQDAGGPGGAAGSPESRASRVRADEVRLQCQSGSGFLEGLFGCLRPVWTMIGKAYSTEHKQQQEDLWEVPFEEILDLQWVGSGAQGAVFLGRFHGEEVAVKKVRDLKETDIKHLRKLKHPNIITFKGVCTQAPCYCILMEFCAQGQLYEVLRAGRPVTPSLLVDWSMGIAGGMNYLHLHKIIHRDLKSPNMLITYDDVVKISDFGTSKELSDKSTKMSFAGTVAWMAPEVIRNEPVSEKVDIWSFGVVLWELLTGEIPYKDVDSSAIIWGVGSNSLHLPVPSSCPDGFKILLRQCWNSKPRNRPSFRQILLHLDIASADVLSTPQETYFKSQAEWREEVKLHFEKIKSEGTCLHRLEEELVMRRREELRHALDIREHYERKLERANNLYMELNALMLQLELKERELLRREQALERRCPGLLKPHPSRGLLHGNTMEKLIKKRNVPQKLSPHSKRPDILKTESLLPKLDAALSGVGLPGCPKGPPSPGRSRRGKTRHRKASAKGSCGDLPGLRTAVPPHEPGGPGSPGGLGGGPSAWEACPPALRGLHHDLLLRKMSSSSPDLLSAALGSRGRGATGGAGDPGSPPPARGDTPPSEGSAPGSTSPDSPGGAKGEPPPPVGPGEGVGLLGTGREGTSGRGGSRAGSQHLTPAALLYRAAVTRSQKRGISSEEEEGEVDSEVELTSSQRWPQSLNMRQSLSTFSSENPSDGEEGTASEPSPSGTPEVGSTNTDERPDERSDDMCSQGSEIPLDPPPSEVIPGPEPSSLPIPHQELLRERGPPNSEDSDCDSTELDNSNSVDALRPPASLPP

[5] = test system: FGFR1, FMS, PDGFRb, TYRO3; test: KiNativ, OCI cells live cell; assay type: cell-based, human; details: labeling site Lys1, peptide VAVKMLK
[6] = test system: CDK11, CDK8; test: KiNativ, OCI cells live cell; assay type: cell-based, human; details: labeling site Lys2, peptide DLKPANILVMGEGPER
[7] = target: MAP3K1 (Homo sapiens, UniProt Q13233); test: KiNativ, OCI cells live cell; assay type: cell-based; details: 2 h, labeling site Lys2, peptide […]
MAP3K1, sequence (Q13233 whole entry): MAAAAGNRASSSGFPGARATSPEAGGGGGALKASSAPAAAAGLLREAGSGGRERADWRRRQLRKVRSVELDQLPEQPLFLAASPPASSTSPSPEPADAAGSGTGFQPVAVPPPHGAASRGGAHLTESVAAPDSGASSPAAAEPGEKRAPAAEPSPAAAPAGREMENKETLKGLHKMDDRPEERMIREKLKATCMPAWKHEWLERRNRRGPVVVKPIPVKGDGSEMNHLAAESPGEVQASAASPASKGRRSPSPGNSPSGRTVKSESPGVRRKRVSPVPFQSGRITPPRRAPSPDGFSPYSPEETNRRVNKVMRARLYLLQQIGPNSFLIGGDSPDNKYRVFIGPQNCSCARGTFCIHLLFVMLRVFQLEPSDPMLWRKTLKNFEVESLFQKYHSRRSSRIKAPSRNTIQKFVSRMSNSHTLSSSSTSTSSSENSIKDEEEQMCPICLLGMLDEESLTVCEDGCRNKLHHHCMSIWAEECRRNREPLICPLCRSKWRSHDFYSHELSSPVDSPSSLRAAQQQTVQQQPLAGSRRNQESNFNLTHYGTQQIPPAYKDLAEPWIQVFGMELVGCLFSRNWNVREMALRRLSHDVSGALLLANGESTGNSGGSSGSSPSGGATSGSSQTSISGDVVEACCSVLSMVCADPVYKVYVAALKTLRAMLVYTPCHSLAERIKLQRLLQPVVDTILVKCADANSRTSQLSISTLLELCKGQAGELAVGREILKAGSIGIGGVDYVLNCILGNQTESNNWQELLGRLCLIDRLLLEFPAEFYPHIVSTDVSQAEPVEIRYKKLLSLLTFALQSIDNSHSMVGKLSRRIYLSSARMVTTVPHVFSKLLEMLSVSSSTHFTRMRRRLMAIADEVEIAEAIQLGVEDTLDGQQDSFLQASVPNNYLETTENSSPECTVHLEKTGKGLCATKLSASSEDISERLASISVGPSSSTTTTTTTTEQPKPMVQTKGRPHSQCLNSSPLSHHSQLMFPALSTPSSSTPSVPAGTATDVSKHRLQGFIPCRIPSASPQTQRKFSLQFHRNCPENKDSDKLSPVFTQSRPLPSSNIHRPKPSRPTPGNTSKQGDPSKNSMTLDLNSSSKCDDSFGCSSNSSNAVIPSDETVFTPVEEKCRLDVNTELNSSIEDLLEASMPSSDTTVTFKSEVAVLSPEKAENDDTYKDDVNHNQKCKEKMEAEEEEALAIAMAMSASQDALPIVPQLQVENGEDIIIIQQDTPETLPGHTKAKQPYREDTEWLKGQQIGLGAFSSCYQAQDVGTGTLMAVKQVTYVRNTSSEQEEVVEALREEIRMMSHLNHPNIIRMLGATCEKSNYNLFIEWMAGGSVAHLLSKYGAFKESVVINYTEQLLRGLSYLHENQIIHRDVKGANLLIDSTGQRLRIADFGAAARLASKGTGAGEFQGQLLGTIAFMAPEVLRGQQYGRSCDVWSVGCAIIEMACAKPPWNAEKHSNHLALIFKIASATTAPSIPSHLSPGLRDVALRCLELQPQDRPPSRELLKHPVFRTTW

[8] = Tolerability studies in tumor-bearing mice; assay type: in vivo; details: once daily continuously or 5 consecutive days per week, up to 3–6 weeks
Procedure: We performed tolerability studies in tumor-bearing 8- to 12-week-old female NOD-scid-γ (NSG) mice.
days/week, along with vehicle, was administered in female NSG mice engrafted with MOLM13 -Luc+ and
MOLM13-Res -Luc+ cells. Treatment started on day-7 and -13 post-tail vein injection (TVI) in MOLM13-Luc+
and MOLM13-Res -Luc+, respectively. Change in their daily weights (%) were followed for tolerability.
(1 picture or pasted object on this page, not shown here)

[9] = target: CaMK2g (Homo sapiens, UniProt Q13555); test: KiNativ, OCI cells live cell; assay type: cell-based; details: 2 h, labeling site Lys1, peptide […]
[10] = test system: MV4-11, MOLM13, and MOLM13-RES cells; test: Apoptosis assay (annexin V); assay type: cell-based, human; details: 20 nM, 24 and 48 hours
Procedure: (§1) Apoptosis and CD11b expression assays
(§2) At indicated time points, cells were collected and washed with PBS. CD11b expression was measured using anti-CD11b -APC antibody (BioLegend, San Diego, CA). Each sample was suspended in 100uL of FACS buffer (PBS + 4% FBS) with 1uL of antibody, incubated on ice for 15 minutes in the dark and washed once in PBS. DAPI (final concentration 1ug/mL [ThermoFisher Scientific]) was added to each sample as a viability dye. For apoptosis assay, cells were incubated with annexin V-APC (BioLegend) according to manufacturer’s instructions. CD11b expression and apoptosis were measured by BD LSR II flow cytometer. Two-color cytometry was performed, and data were […]
(§3) points, cells were collected and washed with 0.1% EDTA PBS (Ricca Chemical Company, Arlington, TX) followed by only PBS. Cells were then fixed on ice with ice-cold 70% ethanol for 30 minutes . Cells were either stored at -20°C for up to 1 month or processed immediately. Cells were spun down at 450 x g for 10 minutes and stained

[11] = test system: OCI-AML3 cells; test: Apoptosis assay (annexin V); assay type: cell-based, human; details: 20–50 nM, 72 hours
Procedure: as §1, §2, §3

[12] = test system: native kinases in MOLM13 cells; test: KiNativ in situ kinase profiling, MOLM13 cells; assay type: cell-based, human; details: 100 nM, compared with DMSO
Procedure: Samples were analyzed by KiNativ in situ kinase profiling by ActivX Biosciences.

[13] = target: T3, GCN2 domain2 (Homo sapiens, UniProt Q9P2K8); test: KiNativ, OCI cells live cell; assay type: cell-based; details: 2 h
T3 construct: GCN2 domain2
T3 sequence (Q9P2K8 whole entry, the tested form may be a part): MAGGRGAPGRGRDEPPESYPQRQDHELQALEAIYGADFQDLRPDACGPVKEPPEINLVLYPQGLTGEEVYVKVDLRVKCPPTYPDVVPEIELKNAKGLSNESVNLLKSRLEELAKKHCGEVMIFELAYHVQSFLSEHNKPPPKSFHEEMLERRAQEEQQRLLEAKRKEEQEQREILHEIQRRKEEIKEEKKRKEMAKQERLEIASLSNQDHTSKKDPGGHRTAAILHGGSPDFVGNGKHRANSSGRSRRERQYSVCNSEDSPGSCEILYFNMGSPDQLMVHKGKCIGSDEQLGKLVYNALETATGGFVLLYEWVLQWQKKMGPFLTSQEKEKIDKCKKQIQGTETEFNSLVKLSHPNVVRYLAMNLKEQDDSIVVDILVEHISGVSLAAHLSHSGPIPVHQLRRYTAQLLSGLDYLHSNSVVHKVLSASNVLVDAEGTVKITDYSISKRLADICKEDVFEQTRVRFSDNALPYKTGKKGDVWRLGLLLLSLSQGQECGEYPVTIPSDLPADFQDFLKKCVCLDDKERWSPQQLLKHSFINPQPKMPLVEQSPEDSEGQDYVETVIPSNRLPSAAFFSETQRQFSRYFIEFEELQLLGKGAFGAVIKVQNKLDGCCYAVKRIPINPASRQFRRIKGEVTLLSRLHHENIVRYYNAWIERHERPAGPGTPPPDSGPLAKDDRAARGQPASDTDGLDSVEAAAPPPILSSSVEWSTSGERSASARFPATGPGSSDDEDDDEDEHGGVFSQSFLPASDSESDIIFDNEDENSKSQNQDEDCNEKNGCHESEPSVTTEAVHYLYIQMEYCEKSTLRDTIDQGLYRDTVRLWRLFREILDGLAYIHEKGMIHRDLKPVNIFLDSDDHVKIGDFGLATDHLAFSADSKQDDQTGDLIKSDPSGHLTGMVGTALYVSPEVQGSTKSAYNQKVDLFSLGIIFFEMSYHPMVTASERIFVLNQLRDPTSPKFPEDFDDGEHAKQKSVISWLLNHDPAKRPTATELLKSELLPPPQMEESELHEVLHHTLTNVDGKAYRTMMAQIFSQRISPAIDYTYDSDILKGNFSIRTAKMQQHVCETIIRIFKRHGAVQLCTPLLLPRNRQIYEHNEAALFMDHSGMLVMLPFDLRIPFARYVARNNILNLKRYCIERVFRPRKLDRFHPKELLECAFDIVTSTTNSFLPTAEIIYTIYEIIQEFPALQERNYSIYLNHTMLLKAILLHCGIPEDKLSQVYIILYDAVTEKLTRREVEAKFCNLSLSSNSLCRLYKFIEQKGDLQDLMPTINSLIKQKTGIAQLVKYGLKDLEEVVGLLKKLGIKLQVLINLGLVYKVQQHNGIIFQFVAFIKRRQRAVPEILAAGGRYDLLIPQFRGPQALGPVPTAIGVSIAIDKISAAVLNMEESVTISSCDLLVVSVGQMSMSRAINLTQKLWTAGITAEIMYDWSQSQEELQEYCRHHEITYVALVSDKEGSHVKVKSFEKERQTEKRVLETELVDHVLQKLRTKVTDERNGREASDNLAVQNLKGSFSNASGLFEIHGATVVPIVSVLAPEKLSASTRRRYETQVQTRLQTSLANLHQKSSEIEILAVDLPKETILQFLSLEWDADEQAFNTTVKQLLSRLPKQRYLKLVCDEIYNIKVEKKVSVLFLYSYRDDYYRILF

[14] = target: T4, RSK3 domain1 (Homo sapiens, UniProt Q15349); test: KiNativ, OCI cells live cell; assay type: cell-based; details: 2 h, labeling site Lys2, peptide […]
T4 construct: RSK3 domain1
T4 sequence (Q15349 whole entry, the tested form may be a part): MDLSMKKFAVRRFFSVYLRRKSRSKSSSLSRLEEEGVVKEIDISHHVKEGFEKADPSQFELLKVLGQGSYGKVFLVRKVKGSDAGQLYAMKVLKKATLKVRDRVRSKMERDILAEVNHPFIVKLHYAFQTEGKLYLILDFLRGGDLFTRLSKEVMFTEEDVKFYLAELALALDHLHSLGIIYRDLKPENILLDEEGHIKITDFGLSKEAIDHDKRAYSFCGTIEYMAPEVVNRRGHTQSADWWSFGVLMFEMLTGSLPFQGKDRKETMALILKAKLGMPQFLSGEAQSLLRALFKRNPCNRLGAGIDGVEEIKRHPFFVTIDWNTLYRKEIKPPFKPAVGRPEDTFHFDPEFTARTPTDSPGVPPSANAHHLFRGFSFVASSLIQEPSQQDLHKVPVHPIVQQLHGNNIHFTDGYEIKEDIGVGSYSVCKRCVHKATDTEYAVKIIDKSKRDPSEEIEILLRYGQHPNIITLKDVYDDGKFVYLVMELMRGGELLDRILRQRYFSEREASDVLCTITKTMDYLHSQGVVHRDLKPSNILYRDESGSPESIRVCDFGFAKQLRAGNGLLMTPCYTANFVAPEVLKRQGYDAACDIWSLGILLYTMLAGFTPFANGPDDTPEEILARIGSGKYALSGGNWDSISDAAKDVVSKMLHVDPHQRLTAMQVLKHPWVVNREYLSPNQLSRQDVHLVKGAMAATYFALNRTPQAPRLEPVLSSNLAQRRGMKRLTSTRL

[15] = target: T5, AurA (Homo sapiens, UniProt O14965); test: KiNativ, OCI cells live cell; assay type: cell-based; details: 2 h
T5 sequence (O14965 1-403): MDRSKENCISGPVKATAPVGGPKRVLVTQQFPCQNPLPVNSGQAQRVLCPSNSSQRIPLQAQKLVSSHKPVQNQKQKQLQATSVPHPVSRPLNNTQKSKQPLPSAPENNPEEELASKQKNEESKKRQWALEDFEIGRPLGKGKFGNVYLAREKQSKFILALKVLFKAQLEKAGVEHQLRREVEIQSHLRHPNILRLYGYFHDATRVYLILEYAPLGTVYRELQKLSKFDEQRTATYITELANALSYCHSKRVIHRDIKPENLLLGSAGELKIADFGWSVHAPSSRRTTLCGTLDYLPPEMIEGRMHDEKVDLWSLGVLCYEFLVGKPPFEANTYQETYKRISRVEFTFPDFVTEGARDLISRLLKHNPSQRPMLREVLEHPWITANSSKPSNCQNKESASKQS

CN1CCN(Cc2ccc(Nc3ncc(Cl)c(Nc4ccccc4S(=O)(=O)N(C)C)n3)cc2)CC1 [TP-0903]
inhibition at 0.1 µM ([1]; labeling site Lys1, peptide YAAVKIHQLNK): -15.2%
inhibition at 0.1 µM ([1]; labeling site Lys2, peptide YLNEIKPPIIHYDLKPGNILLVDGTACGEIK): -2.5%
inhibition at 0.1 µM [2]: -1.8%
Kd [3]: < 5 nM
Inhibition [4]: 91.0%
Inhibition [5]: 4.2%
Inhibition [6]: -14.9%
inhibition at 0.1 µM [7]: 57.6%
Highest tolerated doses [8]: 40 mg/kg and 60 mg/kg
inhibition at 0.1 µM [9]: 31.6%
Apoptosis [10]: significant apoptosis
Apoptosis [11]: significant apoptosis
Inhibition of AURKA/B/C, CDK6/7, BTK, and JAK1 [12]: moderate to strong inhibition
inhibition at 0.1 µM ([13]; labeling site Lys1, peptide LDGCCYAVKR): -6.9%
inhibition at 0.1 µM ([13]; labeling site Lys2, peptide DLKPVNIFLDSDDHVK): -2.8%
inhibition at 0.1 µM [14]: 53.5%
inhibition at 0.1 µM ([15]; labeling site Lys1, peptide FILALKVLFK): 89.9%
inhibition at 0.1 µM ([15]; labeling site Lys2, peptide DIKPENLLLGSAGELK): 90.7%
